Reference: US8802631B2, “Peptides and methods for the treatment of gliomas and other cancers” (Ludwig Institute for Cancer Research Ltd., priority 2007, dated 2014)

Columns and labels:
U87MG cells = test: BrdU incorporation assay in U87MG cells; format: cell-based, human; conditions: 24 hours; for effect of TAT peptide on cell proliferation mediated by STI1 (BrdU): TAT peptide 0.17 μM plus STI1 0.17 μM, FIG. 9; for effect of peptide on cell proliferation mediated by STI1 (BrdU): peptide 0.17 μM or 8 μM plus STI1 0.17 μM, FIG. 8; for effect of peptide on STI1-promoted U87MG proliferation (BrdU): FIG. 7B
Protocol: Cells were plated overnight on 24-well plates with glass cover slips, at a density of 1.5×10^4 cells per well, with DMEM with 10% FCS at 37° C. Plates were washed 3 times with PBS and were maintained in DMEM F12 for 48 hours. Cells were then treated for 24 hours with DMEM/10% FCS or DMEM plus mouse recombinant STI1 (170 nM); recombinant STI1 (170 nM) plus mouse peptide STI1230-245(ELGNDAYKKKDFDKAL) (SEQ ID NO: 1) or its human homologue peptide Hop230-245(ELGNDAYKKKDFDTAL) (SEQ ID NO: 2) (170 nM or 8 μM); STI1 (170 nM) plus STI1/Hop61-76 (GCKTVDLKPDWGKGYS) (SEQ ID NO: 3) irrelevant peptide (170 nM or 8 μM); or each one of the peptides alone. Two hours before the end of treatment, cells received a pulse of BrdU (35 μM) pulse and were fixed with 4% paraformaldehyde.
Coverslips were treated with 2N HCl for 30 minutes. The reagent was then removed and borate buffer applied (boric acid 0.1M, sodium hydroxide 0.15M), pH 8.4, for 10 minutes. Then, cells were treated with PBS plus 0.2% Triton X-100 for 15 minutes. The blocking step was made with PBS/0.2% Triton with 20% horse serum, for 1 hour. Primary anti-BrdU biotinylated antibodies (1:100) were applied overnight (diluted in PBS/0.2% Triton with 1% horse serum). Coverslips were washed 3 times with PBS and incubated for one hour with Strepta-Alexa 488 and DAPI reagents (1:1000), washed more 3 times with PBS and assembled to slides.
(§1) There were taken at least four microscopic fields of each treatment on WB filter, ranging from 330-385 nm (DAPI), plus their respective BrdU images, on WIB filter, 450-480 nm using DP controller software, Olympus. Picture files were analyzed on ImageJ software, and the percentage of BrdU positive nuclei in respect to total nuclei number (DAPI) was calculated using the Analyze Particles tool.
FIG. 7B: Treatment of U87MG cells with STI1230-245 peptide abrogates cell proliferation mediated by STI1. U87MG human glioblastoma cells were plated at 1.5×10^4 confluence on glass cover slips of 12 mm. After overnight adherence, cells were starved on serum-free media for 48 hours. Cells were subjected to distinct treatments (see picture) for 24 hours, and a BrdU pulse of 32 μM was performed on the last 2 hours of treatment. Immunofluorescence and cell imaging were done in order to permit absolute cell counting. Values represent percentage of BrdU positive cell nuclei from total number of cell nuclei. FCS (fetal calf serum), STI1/Hop (0.17 μM or 8 μM) and/or STI1230-245 (0.17 μM or 8 μM) and/or STI1/Hop61-76 (irrelevant N-terminus STI1/Hop peptide, 0.17 μM or 8 μM). *Statistically significant from control (without treatment), p<0.001. Bars shown as mean±SEM.
FIG. 8: Hop230-245 peptide inhibits the U87MG cell proliferation mediated by STI1. U87MG human glioblastoma cells were plated at 1.5×10^4 confluence on glass cover slips of 12 mm. After overnight adherence, cells were starved on serum-free media for 48 hours. Cells were subjected to distinct treatments (see picture) for 24 hours, and a BrdU pulse of 32 μM was performed on the last 2 hours of treatment. Immunofluorescence and cell imaging were done in order to permit absolute cell counting. Values represent percentage of BrdU positive cell nuclei from total number of cell nuclei. STI1 (0.17 μM) and/or Hop230-245 (0.17 μM or 8 μM) and/or STI1/Hop61-76 (irrelevant STI1/Hop61-76, 0.17 μM or 8 μM). *Statistically significant from control (without treatment), p<0.01. Bars shown as mean±SEM.
FIG. 9: Treatment of U87MG cells with TAT-STI1230-245 and TAT-Hop230-245 peptides inhibits cell proliferation mediated by STI1. U87MG human glioblastoma cells were plated at 1.5×10^4 confluence on glass cover slips of 12 mm. After overnight adherence, cells were starved on serum-free media for 48 hours. Cells were subjected to distinct treatments (see picture) for 24 hours, and a BrdU pulse of 32 μM was performed on the last 2 hours of treatment. Immunofluorescence and cell imaging were done in order to permit absolute cell counting. […]

rats = test: One-trial step-down inhibitory avoidance (IA) long-term memory test; format: in vivo, rat
From the text: Rats were trained in a one-trial, step-down IA paradigm, a hippocampal-dependent learning task in which stepping down from a platform present in a given context is associated with a foot shock, resulting in an increase in step-down latency when the animal is brought back to the training chamber for a retention test (Cammarota et al., 2004). The IA apparatus was a 50×25×25 cm Plexiglas box with a 5-cm-high, 8-cm-wide and 25-cm-long platform on the left end of a series of bronze bars that constitutes the floor of the box. During training, each animal was gently placed on the platform facing the left rear corner of the training box. When an animal stepped down and placed all four of its paws on the grid, it received a 2-s, 0.5-mA foot shock and was then immediately withdrawn from the training box. Animals were replaced in the IA box for retention testing 90 min (for short-term memory (STM)), or 24 h later (for long-term memory (LTM)); their latency to step down onto the grid was recorded. The difference between the training and test-session step-down latencies was taken as a measure of retention. Better memory for the training was inferred from longer retention latencies (Bernabeu et al., 1997; Izquierdo et al., 1997). The maximum retention latency allowed was 180 s, at which time the animal was taken out of the IA box if it had not stepped down and given a score of 180 s. Full details of the experimental protocols can be found in Coitinho et al., 2007.
The data obtained in tests of the effect of peptides on rat long-term memory are presented as medians±interquartile range and were analyzed by the Kruskal-Wallis nonparametric test followed by Dunn's post-hoc (n=10 to 13 animals for each treatment group). In all comparisons, p<0.05 was taken as a significant difference.
FIG. 11: STI1230-245 peptide and TAT-STI1230-245 peptides are capable of increasing long-term memory. The latency to step down before treated rats was recorded (Training) and immediately after training animals received a bilateral hippocampal infusion of saline, STI1230-245 peptide, TAT-STI1230-245 or TAT-STI161-76 irrelevant peptide at the concentration of 15 ng/μl in a total volume of 0.5 μl/side. The latency to step down was tested again 24 hours later (LTM test) and measures Long-term memory (LTM). Data are shown as mean±SE of step-down latencies (n=12 rats in each group). *p<0.05 vs control.

A172 cells [1] = test: [3H]-thymidine incorporation proliferation assay in A172 cells; format: cell-based, human; conditions: 24 hr; for promotion of proliferation by peptide alone: serum-free media, FIG. 6
Erk = test: Western blot of phospho-Erk in A172 cell lysates; format: cell-based, human; conditions: inhibitor added 10 minutes prior to STI1
A172 cells [2] = test: BrdU incorporation assay in A172 cells; format: cell-based, human; conditions: peptide 170 nM plus STI1 170 nM, 18 hours, FIG. 7A
Protocol: Cells were plated overnight on 24-well plates with glass coverslips, at a density of 1×10^4 cells per well, in DMEM high glucose plus 10% FCS at 37° C. Plates were washed 3 times with PBS and were maintained in DMEM without FCS for 30 hours. Cells were then treated for 18 hours with DMEM/10% FCS or DMEM plus mouse recombinant STI1 (170 nM); STI1 (170 nM) plus STI1230-245 peptide (170 nM); or STI1 (170 nM) plus STI161-76 irrelevant peptide (170 nM). Thirty minutes before the end of treatment, cells received a pulse of BrdU (35 μM) and were fixed with 4% paraformaldehyde.
Coverslips were treated with 2N HCl for 30 minutes. The reagent was then removed and borate buffer applied (boric acid 0.1M, sodium hydroxide 0.15M), pH 8.4, for 10 minutes. Then, cells were treated with PBS plus 0.2% Triton X-100 for 15 minutes. The blocking step was made with PBS/0.2% Triton with 20% horse serum, for 1 hour. […]
as §1, with “tool. […]” for “tool.”

[3] = target: cellular prion protein (PrP^C), endogenous, on human glioblastoma cells (A172, U87MG) (human (A172 human glioblastoma cell line)) (UniProt P04156); test: cell-based or functional assay

Molecule: YGRKKRRQRRRELGNDAYKKKDFDKAL (conjugate of seq id nos 1 and 8) [TAT-STI1230-245]
- effect of TAT peptide on cell proliferation mediated by STI1 (BrdU) (U87MG cells): able to block cell proliferation mediated by STI1
- effect in memory consolidation (rats; rat, in vivo): potent effect in memory consolidation
- long-term memory (retention latency, LTM test 24 hours after training) (rats; rat, in vivo): greatly enhanced long-term memory

Molecule: N#CC(=C(/N)Sc1ccccc1N)/C(C#N)=C(\N)Sc1ccccc1N [U0126]
- effect of inhibitor on STI1-induced proliferation (A172 cells [1]; U0126 10 μM or LY294002 5 μM added 10 minutes before STI1 170 nM): completely abolished STI1-induced proliferation
- effect of co-treatment on STI1-induced Erk activation (Erk): abolished

Molecule: ELGNDAYKKKDFDKAL (listed as Mus musculus) [STI1230-245]
- promotion of proliferation by peptide alone (A172 cells [1]): unable by itself to promote proliferation
- effect of peptide on STI1-induced proliferation (BrdU) (A172 cells [2]): inhibited STI1-induced proliferation
- effect of peptide on cell proliferation mediated by STI1 (BrdU) (U87MG cells): able to abrogate the cell proliferation mediated by STI1
- effect of peptide on STI1-promoted U87MG proliferation (BrdU) (U87MG cells; peptide 170 nM plus STI1 170 nM): blocked
- effect of peptide on STI1-promoted U87MG proliferation (BrdU) (U87MG cells; peptide 8 μM plus STI1 170 nM): blocked
- long-term memory (retention latency, LTM test 24 hours after training) (rats; bilateral hippocampal infusion immediately after training, 15 ng/μl, 0.5 μl/side): greatly enhanced long-term memory
- effect in memory consolidation (rats; rats, FIG. 11): potent effect in memory consolidation

Molecule: recombinant mouse stress-inducible phosphoprotein 1 (STI1), wild type (from UniProt Q60864 1-543) (ligand)
- BrdU incorporation (proliferation) of A172 cells [3]: 1.5 fold
- BrdU incorporation (proliferation) of U87MG cells [3]: 3 fold
- [3H]-thymidine incorporation of A172 cells, concentration of the maximum effect [3]: 170 nM

Molecule: GCKTVDLKPDWGKGYS (listed as Homo sapiens) [STI1/Hop61-76, N-terminus irrelevant STI1/Hop peptide, reference compound]
- promotion of proliferation by peptide alone (A172 cells [1]): did not enhance proliferation
- effect of peptide on STI1-induced proliferation (BrdU) (A172 cells [2]): no effect
- effect of peptide on cell proliferation mediated by STI1 (BrdU) (U87MG cells): had no effect upon proliferation mediated by STI1

Molecule: YGRKKRRQRRRELGNDAYKKKDFDTAL (conjugate of seq id nos 2 and 8) [TAT-Hop230-245]
- effect of TAT peptide on cell proliferation mediated by STI1 (BrdU) (U87MG cells): able to block cell proliferation mediated by STI1
- effect in memory consolidation (rats; rat, in vivo): potent effect in memory consolidation

Molecule: ELGNDAYKKKDFDTAL (listed as Homo sapiens) [Hop230-245, human homologue of mouse STI1230-245 peptide]
- effect of peptide on cell proliferation mediated by STI1 (BrdU) (U87MG cells): able to abrogate the cell proliferation mediated by STI1
- effect in memory consolidation (rats; rats, FIG. 11): potent effect in memory consolidation
